In patent US20110224210A1, “NOVEL BIS-AMIDES AS ANTI-MALARIAL AGENTS” (priority 2008, published 2011):

Tested on: P. falciparum K1 (strain resistant to chloroquine and pyrimethamine), erythrocytic stages
Assay: Plasmodium falciparum in vitro assay, [3H] hypoxanthine incorporation
Assay type: cell-based
Settings: Plasmodium falciparum, K1, P. falciparum strain K1; [3H] hypoxanthine incorporation; read-out: IC50 (nM) on K1
Method in brief: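 Chloroquine/pyrimethamine-resistant K1 erythrocytic cultures (2.5% haematocrit, 0.3% parasitaemia, hypoxanthine-free RPMI with Albumax) exposed to seven doubling dilutions at 37 °C under low O2.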

Row | SMILES | IC50 [nM]
1 | COCCN(C)C(=O)[C@H](Cc1ccccc1)N(Cc1ccc(N2CCOCC2)cc1)C(=O)C=Cc1nc(C)oc1C [Example 65, (S)-3-(2,5-Dimethyl-oxazol-4-yl)-N-{1-[(2-methoxy-ethyl)-methyl-carbamoyl]-2-phenyl-ethyl}-N-(4-morpholin-4-yl-benzyl)-acrylamide] | 269
2 | COCCN(C)C(=O)C(Cc1ccnn1C)N(Cc1ccc(-c2ccncc2)cc1)C(=O)C=Cc1ccc(C(F)(F)F)cc1 (racemic) [Example 168] | 349
3 | COCCN(C)C(=O)C(Cc1cnn(C)c1)N(Cc1ccc(-c2ccccn2)cc1)C(=O)C=Cc1ccc(C(F)(F)F)cc1 (racemic) [Example 164] | 247
4 | CC(=O)N1CCN(c2ccc(CN(C(=O)C=Cc3ccc(C(F)(F)F)cc3)[C@@H](Cc3ccccc3)C(=O)N(C)CCO)cc2)CC1 [Example 176, (S)-N-[4-(4-Acetyl-piperazin-1-yl)-benzyl]-N-{1-[(2-hydroxy-ethyl)-methyl-carbamoyl]-2-phenyl-ethyl}-3-(4-trifluoromethyl-phenyl)-acrylamide] | 51
5 | CN(C)C1CCN(C(=O)[C@H](Cc2ccccc2)N(Cc2ccc(-c3ccccn3)cc2)C(=O)C=Cc2ccc(Cl)nc2)CC1 [Example 14, (S)-N-[1-Benzyl-2-(4-dimethylamino-piperidin-1-yl)-2-oxo-ethyl]-3-(6-chloro-pyridin-3-yl)-N-(4-pyridin-2-yl-benzyl)-acrylamide] | 226
6 | Cc1c(C=CC(=O)N(Cc2ccc(-c3cncnc3)cc2)[C@@H](Cc2ccccc2)C(=O)N2CCC(N(C)C)CC2)cnn1C [Example 43, (S)-N-[1-Benzyl-2-(4-dimethylamino-piperidin-1-yl)-2-oxo-ethyl]-3-(1,5-dimethyl-1H-pyrazol-4-yl)-N-(4-pyrimidin-5-yl-benzyl)-acrylamide] | 354
7 | CC(=O)N1CCN(c2ccc(CN(C(=O)C=Cc3ccc(C(F)(F)F)cc3)[C@@H](Cc3ccccc3)C(=O)N(C)CCN(C)Cc3cccc(OCCO)c3)cc2)CC1 [Example 242, (S)-N-[4-(4-Acetyl-piperazin-1-yl)-benzyl]-N-{1-[(2-{[3-(2-hydroxy-ethoxy)-benzyl]-methyl-amino}-ethyl)-methyl-carbamoyl]-2-phenyl-ethyl}-3-(4-trifluoromethyl-phenyl)-acrylamide] | 14
8 | CC(=O)N1CCN(c2ccc(CN(C(=O)C=Cc3ccc(C(F)(F)F)cc3)[C@@H](Cc3ccccc3)C(=O)N(C)CCOCc3ccc4c(c3)nnn4C)cc2)CC1 [Example 189, (S)-N-[4-(4-Acetyl-piperazin-1-yl)-benzyl]-N-(1-{methyl-[2-(1-methyl-1H-benzotriazol-5-ylmethoxy)-ethyl]-carbamoyl}-2-phenyl-ethyl)-3-(4-trifluoromethyl-phenyl)-acrylamide, formic acid] | 9
9 | CN(C)C1CCN(C(=O)[C@H](Cc2ccccc2)N(Cc2ccc(-c3ccccn3)cc2)C(=O)C=Cc2ccc(C(F)(F)F)cc2)CC1 [Example 6, (S)-N-[1-Benzyl-2-(4-dimethylamino-piperidin-1-yl)-2-oxo-ethyl]-N-(4-pyridin-2-yl-benzyl)-3-(4-trifluoromethyl-phenyl)-acrylamide] | 54
10 | COCCN(C)C(=O)C(CN1CCOC1=O)N(Cc1ccc(-c2ccncc2)cc1)C(=O)C=Cc1ccc(C(F)(F)F)cc1 (racemic) [Example 284] | 362
11 | O=C(NC1CN2CCC1CC2)[C@H](Cc1ccccc1)N(Cc1ccc(-c2ccccn2)cc1)C(=O)C=Cc1ccc(C(F)(F)F)cc1 (mixture of isomers) [Example 152] | 242
12 | CCc1ccc(CN(C(=O)C=Cc2ccc(C)cc2)[C@@H](Cc2ccccc2)C(=O)N(C)CCOC)cc1 [Example 161, (S)-N-(4-Ethyl-benzyl)-N-{1-[(2-methoxy-ethyl)-methyl-carbamoyl]-2-phenyl-ethyl}-3-p-tolyl-acrylamide] | 49
13 | Cc1ccc(C=CC(=O)N(Cc2ccc(-c3ccncc3)cc2)[C@@H](Cc2ccccc2)C(=O)N2CCC(N(C)C)CC2)nc1 [Example 28, (S)-N-[1-Benzyl-2-(4-dimethylamino-piperidin-1-yl)-2-oxo-ethyl]-3-(5-methyl-pyridin-2-yl)-N-(4-pyridin-4-yl-benzyl)-acrylamide] | 81
14 | CC(=O)N1CCN(c2ccc(CN(C(=O)C=Cc3ccc(C(F)(F)F)cc3)[C@@H](Cc3ccccc3)C(=O)N(C)CCN(C)Cc3cccc(C#N)c3)cc2)CC1 [Example 243, (S)-N-[4-(4-Acetyl-piperazin-1-yl)-benzyl]-N-[1-({2-[(3-cyano-benzyl)-methyl-amino]-ethyl}-methyl-carbamoyl)-2-phenyl-ethyl]-3-(4-trifluoromethyl-phenyl)-acrylamide] | 52
15 | CN(CCN(C)C(=O)[C@H](Cc1ccccc1)N(Cc1ccc(N2CCOCC2)cc1)C(=O)C=Cc1ccc(C(F)(F)F)cc1)Cc1ccc(O)cc1 [Example 256, (S)-N-[1-({2-[(4-Hydroxy-benzyl)-methyl-amino]-ethyl}-methyl-carbamoyl)-2-phenyl-ethyl]-N-(4-morpholin-4-yl-benzyl)-3-(4-trifluoromethyl-phenyl)-acrylamide] | 39
16 | Cc1nc(C)c(C=CC(=O)N(Cc2ccc(-c3ccccn3)cc2)[C@@H](Cc2ccccc2)C(=O)N2CCC(N(C)C)CC2)s1 [Example 10, (S)-N-[1-Benzyl-2-(4-dimethylamino-piperidin-1-yl)-2-oxo-ethyl]-3-(2,4-dimethyl-thiazol-5-yl)-N-(4-pyridin-2-yl-benzyl)-acrylamide] | 176
17 | CN(CCN(C)C(=O)[C@H](Cc1ccccc1)N(Cc1ccc(N2CCOCC2)cc1)C(=O)C=Cc1ccc(C(F)(F)F)cc1)Cc1cccc(O)c1 [Example 258, (S)-N-[1-({2-[(3-Hydroxy-benzyl)-methyl-amino]-ethyl}-methyl-carbamoyl)-2-phenyl-ethyl]-N-(4-morpholin-4-yl-benzyl)-3-(4-trifluoromethyl-phenyl)-acrylamide] | 43
18 | COCCN(C)C(=O)[C@H](Cc1ccccc1)N(Cc1ccc(-c2cncnc2)cc1)C(=O)C=Cc1sc(C)nc1C [Example 121, (S)-3-(2,4-Dimethyl-thiazol-5-yl)-N-{1-[(2-methoxy-ethyl)-methyl-carbamoyl]-2-phenyl-ethyl}-N-(4-pyrimidin-5-yl-benzyl)-acrylamide] | 28
19 | O=C([C@H](Cc1ccccc1)N(Cc1ccccc1)C(=O)C=Cc1ccc(C(F)(F)F)nc1)N1CCC(Cc2ccccc2)CC1 [Example 48, (S)-N-Benzyl-N-[1-benzyl-2-(4-benzyl-piperidin-1-yl)-2-oxo-ethyl]-3-(6-trifluoromethyl-pyridin-3-yl)-acrylamide] | 8
20 | CC(=O)N1CCN(c2ccc(CN(C(=O)C=Cc3ccc(C(F)(F)F)nc3)[C@@H](Cc3ccccc3)C(=O)N(C)CCOCc3cc(C)on3)cc2)CC1 [Example 209, (S)-N-[4-(4-Acetyl-piperazin-1-yl)-benzyl]-N-(1-{methyl-[2-(5-methyl-isoxazol-3-ylmethoxy)-ethyl]-carbamoyl}-2-phenyl-ethyl)-3-(6-trifluoromethyl-pyridin-3-yl)-acrylamide] | 31
21 | CN(C)C1CCN(C(=O)[C@H](Cc2ccccc2)N(Cc2ccc(-c3ccccn3)cc2)C(=O)C=Cc2ccc(C(F)(F)F)cn2)CC1 [Example 17, (S)-N-[1-Benzyl-2-(4-dimethylamino-piperidin-1-yl)-2-oxo-ethyl]-N-(4-pyridin-2-yl-benzyl)-3-(5-trifluoromethyl-pyridin-2-yl)-acrylamide] | 113
22 | CC(=O)N1CCN(c2ccc(CN(C(=O)C=Cc3ccc(C(F)(F)F)cc3)[C@@H](Cc3ccccc3)C(=O)N(C)CCN(C)Cc3ccc(OC(C)C)cc3)cc2)CC1 [Example 244, (S)-N-[4-(4-Acetyl-piperazin-1-yl)-benzyl]-N-[1-({2-[(4-isopropoxy-benzyl)-methyl-amino]-ethyl}-methyl-carbamoyl)-2-phenyl-ethyl]-3-(4-trifluoromethyl-phenyl)-acrylamide] | 19
23 | COc1cc(CN(C)CCN(C)C(=O)[C@H](Cc2ccccc2)N(Cc2ccc(N3CCN(C(C)=O)CC3)cc2)C(=O)C=Cc2ccc(C(F)(F)F)cc2)cc(OC)c1 [Example 236, (S)-N-[4-(4-Acetyl-piperazin-1-yl)-benzyl]-N-[1-({2-[(3,5-dimethoxy-benzyl)-methyl-amino]-ethyl}-methyl-carbamoyl)-2-phenyl-ethyl]-3-(4-trifluoromethyl-phenyl)-acrylamide] | 68
24 | CN(CCN(C)C(=O)[C@H](Cc1ccccc1)N(Cc1ccc(-c2ccccn2)cc1)C(=O)C=Cc1ccc(C(F)(F)F)cc1)Cc1ccc(C(F)(F)F)nc1 [Example 230, (S)-N-[1-(Methyl-{2-[methyl-(6-trifluoromethyl-pyridin-3-ylmethyl)-amino]-ethyl}-carbamoyl)-2-phenyl-ethyl]-N-(4-pyridin-2-yl-benzyl)-3-(4-trifluoromethyl-phenyl)-acrylamide] | 10
25 | COCCN(C)C(=O)[C@H](Cc1ccccc1)N(Cc1ccc(N2CCOCC2)nc1)C(=O)C=Cc1ccc(C)cc1 [Example 158, (S)-N-{1-[(2-Methoxy-ethyl)-methyl-carbamoyl]-2-phenyl-ethyl}-N-(6-morpholin-4-yl-pyridin-3-ylmethyl)-3-p-tolyl-acrylamide] | 24
26 | CN(C)CCNC(=O)[C@H](Cc1ccccc1)N(Cc1ccc(-c2ccccn2)cc1)C(=O)C=Cc1ccc(C(F)(F)F)cc1 [Example 156] | 382
27 | CN(C)C1CCN(C(=O)C(Cc2ccnn2C)N(Cc2ccc(-c3ccncc3)cc2)C(=O)C=Cc2ccc(C(F)(F)F)cc2)CC1 (racemic) [Example 141] | 339
28 | COCCN(C)C(=O)[C@H](Cc1ccccc1)N(Cc1ccc(-c2cncnc2)cc1)C(=O)C=Cc1cnc(C)n1C [Example 120, (S)-3-(2,3-Dimethyl-3H-imidazol-4-yl)-N-{1-[(2-methoxy-ethyl)-methyl-carbamoyl]-2-phenyl-ethyl}-N-(4-pyrimidin-5-yl-benzyl)-acrylamide] | 285
29 | Cc1c(C=CC(=O)N(Cc2ccc(-c3ccncc3)cc2)[C@@H](Cc2ccccc2)C(=O)N2CCC(N(C)C)CC2)cnn1C [Example 31, (S)-N-[1-Benzyl-2-(4-dimethylamino-piperidin-1-yl)-2-oxo-ethyl]-3-(1,5-dimethyl-1H-pyrazol-4-yl)-N-(4-pyridin-4-yl-benzyl)-acrylamide] | 54
